The results in this text go back to BindingDB's records for doi:10.1016/j.bmcl.2006.05.060 (University of Kentucky, 2006).

Assay [1] is described as follows: Displacement of radiolabeled NalBzOH from kappa3 opioid receptor in Hartley guinea pig brain.
Assay [2] in a line: Displacement of radiolabeled DPDPE-Cl from delta opioid receptor in Hartley guinea pig brain.

As for `COc1ccc2c3c1O[C@H]1[C@@H](OS(=O)(=O)O)CC[C@H]4[C@@H](C2)N(C)CC[C@@]341` [DC6S], the Ki worked out at 760 nM in assay [1] and 1150 nM in assay [2].

The molecule `CC1(C)SSC(C)(C)[C@@H](NC(=O)[C@@H](N)Cc2ccc(O)cc2)C(=O)NCC(=O)N[C@@H](Cc2ccc(Cl)cc2)C(=O)N[C@H]1C(=O)O` [(4S,7S,13S)-13-[(S)-2-Amino-3-(4-hydroxy-phenyl)-propionylamino]-7-(4-chloro-benzyl)-3,3,14,14-tetramethyl-6,9,12-trioxo-1,2-dithia-5,8,11-triaza-cyclotetradecane-4-carboxylic acid] had a Ki in assay [1] of 1030 nM.

On to `CC(=O)Oc1ccc2c3c1O[C@H]1[C@@H](OS(=O)(=O)O)C=C[C@H]4[C@@H](C2)N(C)CC[C@@]341` [M3A6S], for which the Ki in assay [1] was 5.5 nM; in assay [2] it was 154 nM.

`COc1ccc2c3c1O[C@H]1[C@@H](OS(=O)(=O)O)C=C[C@H]4[C@@H](C2)N(C)CC[C@@]341` [C6S]: the Ki turned out to be 455 nM in assay [1] and 414 nM in assay [2].

In assay [2], `CN1CC[C@]23c4c5ccc(OC(=O)c6ccccc6)c4O[C@H]2[C@@H](OS(=O)(=O)O)CC[C@H]3[C@H]1C5` [DM3B6S] had a Ki of 1600 nM.

As for `CC(=O)Oc1ccc2c3c1O[C@H]1[C@@H](OS(=O)(=O)[O-])C=C[C@H]4[C@@H](C2)[N+](C)(C)CC[C@@]341` [MM3A6S], the Ki in assay [1] worked out at 400 nM; in assay [2], 842 nM.

In assay [2], `CC(=O)Oc1ccc2c3c1O[C@H]1[C@@H](OS(=O)(=O)O)CC[C@H]4[C@@H](C2)N(C)CC[C@@]341` [DM3A6S] came in with an inhibition constant Ki of 325 nM.

Regarding `C[N+]1(C)CC[C@]23c4c5ccc(OC(=O)c6ccccc6)c4O[C@H]2[C@@H](OS(=O)(=O)[O-])C=C[C@H]3[C@H]1C5` [MM3B6S], the Ki in assay [1] and in assay [2] was above 10000 nM each time.

Consider `CC(C)C(=O)Oc1ccc2c3c1O[C@H]1[C@@H](OS(=O)(=O)O)C=C[C@H]4[C@@H](C2)N(C)CC[C@@]341` [M3IBu6S], for which the Ki in assay [1] was determined as 266 nM; in assay [2], 584 nM.

In turn, `C=CCN1CCC23c4c5ccc(O)c4O[C@@H]2C(=NNC(=O)c2ccccc2)CCC3(O)C1C5` (stereo not given in full) had a Ki in assay [1] of 0.3 nM.

Take `CN1CC[C@]23c4c5ccc(OC(=O)C(C)(C)C)c4O[C@H]2[C@@H](OS(=O)(=O)O)C=C[C@H]3[C@H]1C5` [M3P6S]: the Ki in assay [1] stood at 11 nM; in assay [2], 15 nM.

`CN1CC[C@]23c4c5ccc(O)c4O[C@H]2[C@@H](OS(=O)(=O)O)CC[C@H]3[C@H]1C5` [DM6S]: the Ki in assay [1] was 7 nM; in assay [2], 19 nM.

Regarding `CN1CC[C@]23c4c5ccc(O)c4O[C@H]2[C@@H](OS(=O)(=O)O)C=C[C@H]3[C@H]1C5` [M6S], the inhibition constant Ki in assay [1] was 6.3 nM; in assay [2], 18 nM.

Molecule `C[C@@H](NC(=O)[C@@H](N)Cc1ccc(O)cc1)C(=O)NCC(=O)N(C)[C@@H](Cc1ccccc1)C(=O)NCCO` [[tyrosyl-3,5-3H(N)]-D-Ala2-Mephe4-glyol5-enkephalin] had a Ki in assay [1] of 27 nM.

Regarding `CCC(=O)Oc1ccc2c3c1O[C@H]1[C@@H](OS(=O)(=O)O)C=C[C@H]4[C@@H](C2)N(C)CC[C@@]341` [M3Pr6S], the Ki in assay [1] came out at 20 nM; in assay [2], 40 nM.

Take `CN1CC[C@]23c4c5ccc(OS(=O)(=O)O)c4O[C@H]2[C@@H](O)C=C[C@H]3[C@H]1C5` [M3S]: the Ki in assay [1] is 1690 nM; in assay [2], above 10000 nM.

`CSCC[C@H](NC(=O)[C@H](Cc1ccccc1)NC(=O)CNC(=O)CNC(=O)[C@@H](N)Cc1ccc(O)cc1)C(=O)O` [2-[(S)-2-(2-{2-[(S)-2-Amino-3-(4-hydroxy-phenyl)-propionylamino]-acetylamino}-acetylamino)-1-oxo-3-phenyl-propylamino]-4-methylsulfanyl-butyric acid] displayed a Ki in assay [1] of 277 nM.

With `CN1CC[C@]23c4c5ccc(OC(=O)c6ccccc6)c4O[C@H]2[C@@H](OS(=O)(=O)O)C=C[C@H]3[C@H]1C5` [M3B6S], the values for the inhibitory constant (Ki) in assay [1] and in assay [2] were 513 nM and 600 nM, respectively.

One may read the Ki as a measure of affinity in units of concentration, obtained from inhibition or displacement. A higher Ki goes with weaker binding.
